Values belong to the molecule of their own block, whether it stands above or below them. Numbered stars: 1 amine (or outer) side, 2 acyl side, 3 side chain; on linkers, the order of the positions; unused ones are H or OH. Bridge positions count the residues as written; N and C are the ends. Square brackets hold non-standard residues; d marks the D form. Peptide text beside a SMILES is read from it. * marks the point of attachment. Pro(4S-NHCO(5-Cl-2-thienyl)) = O=C(N[C@@H]1CN[C@H](C(=O)O)C1)c1ccc(Cl)s1; Pyrazinoyl(5-oxo-4H) = O=C(c1c[nH]c(=O)cn1)*; Indane2carbonyl = O=C(C1Cc2ccccc2C1)*; X11 = O=C(c1cccc(S(F)(F)(F)(F)F)c1)*; 2Thenoyl(5-Cl) = O=C(c1ccc(Cl)s1)*; Benzoyl(4-Cl) = O=C(c1ccc(Cl)cc1)*; Cysteamide = C(CS[*:3])N[*:1]; X1 = O=C(/C=C/c1ccccc1)*; Api = NC1(C(=O)O)CCNCC1; X17 = O=C(c1ccc(Br)o1)*; Dap = NC[C@H](N)C(=O)O; Mpa = O=C(O)CCS
Biological target: MDM2 (Homo sapiens, UniProt Q00987)
Sequence (Q00987 whole entry): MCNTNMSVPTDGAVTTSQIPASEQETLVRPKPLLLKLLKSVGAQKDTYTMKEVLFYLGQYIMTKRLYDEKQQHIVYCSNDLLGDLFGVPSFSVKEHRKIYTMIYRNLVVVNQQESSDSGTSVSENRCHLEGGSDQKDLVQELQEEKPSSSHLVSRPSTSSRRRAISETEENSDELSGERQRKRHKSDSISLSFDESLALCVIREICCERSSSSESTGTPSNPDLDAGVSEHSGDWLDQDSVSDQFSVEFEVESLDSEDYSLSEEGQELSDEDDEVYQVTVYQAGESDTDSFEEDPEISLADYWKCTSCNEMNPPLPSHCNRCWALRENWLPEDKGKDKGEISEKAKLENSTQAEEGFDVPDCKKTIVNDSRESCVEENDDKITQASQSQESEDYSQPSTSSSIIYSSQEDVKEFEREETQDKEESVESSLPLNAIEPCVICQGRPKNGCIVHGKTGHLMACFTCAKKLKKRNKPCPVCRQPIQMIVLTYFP
Test: MDM2 binding screen: displacement of fluorescent p53 peptide probe FP53 (fluorescence polarization)
Conditions: for fraction fluorescent probe displaced, Screen: initial screen; for fraction fluorescent probe displaced, Screen / fraction fluorescent probe displaced, Replicate: crude macrocycle reactions
Method in brief: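 Macrocycle reaction products at a final 10 µM were tested for displacement of a p53-based fluorescent peptide from human MDM2. Fluorescence anisotropy (ex 485/em 535 nm) was read once per macrocycle at 25 °C.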

[1] = 10 µM macrocycle concentration, crude acylated macrocycle (scaffold Mpa-AA1-AA2-AA3 x carboxylic acid), p53-based fluorescent peptide, human MDM2

Structure (SMILES): O=C(C=Cc1ccccc1)NC1CC2C(=O)NC(Cc3c[nH]c4ccccc34)C(=O)N3CCCC(C3)C(=O)NCCSSCCC(=O)N2C1 (stereo not shown) [X D5 W B4 Acid 91]
fraction fluorescent probe displaced, Screen (Acid 91): 0.0563 | fraction fluorescent probe displaced, Replicate (Acid 91, replicate): 0.07

Structure (SMILES): O=C(/C=C/c1ccccc1)NC[C@@H]1NC(=O)[C@@H]2CCCN2C(=O)CCSSCCNC(=O)[C@H](Cc2ccccc2)NC1=O [X-B1-D3-F + A91] ([Mpa]P[Dap](X1)F-Cysteamide; disulfide 1-C)
fraction fluorescent probe displaced [1]: 0.08311

Structure (SMILES): O=C1CCSSCCNC(=O)c2cccc(c2)CNC(=O)C2CN(C(=O)c3ccc(Cl)cc3)CCN2C(=O)[C@H](Cc2c[nH]c3ccccc23)N1 (stereo partly shown) [X W D7 B5 Acid 25]
fraction fluorescent probe displaced, Screen (Acid 25): 0.12 | fraction fluorescent probe displaced, Replicate (Acid 25, replicate): 0.10

Structure (SMILES): O=C(C=Cc1ccccc1)NC1CC2C(=O)NCCSSCCC(=O)NC(Cc3c[nH]c4ccccc34)C(=O)N3CCCC(C3)C(=O)N2C1 (stereo not shown) [X W B4 D5 Acid 91]
fraction fluorescent probe displaced, Screen (Acid 91): 0.30 | fraction fluorescent probe displaced, Replicate (Acid 91, replicate): 0.22

Structure (SMILES): O=C1CCSSCCNC(=O)C2CN(C(=O)C=Cc3ccccc3)CCN2C(=O)C2CCCN2C(=O)C(Cc2c[nH]c3ccccc23)N1 (mixture of isomers) [X W B1 D7 Acid 91]
fraction fluorescent probe displaced, Screen (Acid 91): 0.22 | fraction fluorescent probe displaced, Replicate (Acid 91, replicate): 0.07

Structure (SMILES): O=C1NC(Cc2ccccc2)C(=O)NCCSSCCC(=O)N2CCN(C(=O)c3ccc(Cl)cc3)CC2C(=O)NCc2cccc1c2 (stereo not shown) [X D7 B5 F Acid 25]
fraction fluorescent probe displaced, Screen (Acid 25): -0.04 | fraction fluorescent probe displaced, Replicate (Acid 25, replicate): 0.12

Structure (SMILES): O=C1CCSSCCNC(=O)C2(CCN(C(=O)c3ccc(Cl)cc3)CC2)NC(=O)[C@H](Cc2c[nH]c3ccccc23)NC(=O)c2cccc(c2)CN1 [X B5 W D6 Acid 25]
fraction fluorescent probe displaced, Screen (Acid 25): 0.09 | fraction fluorescent probe displaced, Replicate (Acid 25, replicate): 0.28

Structure (SMILES): O=C1CCSSCCNC(=O)c2cccc(c2)CNC(=O)C2CN(C(=O)c3ccc(Cl)cc3)CCN2C(=O)C(Cc2ccccc2)N1 (mixture of isomers) [X F D7 B5 Acid 25]
fraction fluorescent probe displaced, Screen (Acid 25): 0.09 | fraction fluorescent probe displaced, Replicate (Acid 25, replicate): 0.07

Structure (SMILES): O=C1CCSSCCNC(=O)[C@H](Cc2c[nH]c3ccccc23)NC(=O)C2(CCN(C(=O)c3ccc(Cl)cc3)CC2)NC(=O)c2cccc(c2)CN1 [X B5 D6 W Acid 25]
fraction fluorescent probe displaced, Screen (Acid 25): 0.12 | fraction fluorescent probe displaced, Replicate (Acid 25, replicate): 0.15

Structure (SMILES): O=C(/C=C/c1ccccc1)NC[C@@H]1NC(=O)[C@@H]2CCCN2C(=O)[C@H](Cc2ccccc2)NC(=O)CCSSCCNC1=O [X F B1 D3 Acid 91] ([Mpa]FP[Dap](X1)-Cysteamide; disulfide 1-C)
fraction fluorescent probe displaced, Screen (Acid 91): 0.08 | fraction fluorescent probe displaced, Replicate (Acid 91, replicate): 0.04

Structure (SMILES): O=C1NCCSSCCC(=O)N2CC(NC(=O)c3ccc(Cl)s3)CC2C(=O)NC(Cc2c[nH]c3ccccc23)C(=O)NCc2cccc1c2 (stereo not shown) [X D5 W B5 Acid 14]
fraction fluorescent probe displaced, Screen (Acid 14): 0.08 | fraction fluorescent probe displaced, Replicate (Acid 14, replicate): 0.0211

Structure (SMILES): O=C(/C=C/c1ccccc1)N[C@H]1C[C@H]2C(=O)NCc3cccc(c3)C(=O)N[C@@H](Cc3c[nH]c4ccccc34)C(=O)NCCSSCCC(=O)N2C1 [X D5 B5 W Acid 91]
fraction fluorescent probe displaced, Screen (Acid 91): 0.00268 | fraction fluorescent probe displaced, Replicate (Acid 91, replicate): 0.09

Structure (SMILES): O=C(NC[C@@H]1NC(=O)[C@@H]2CCCN2C(=O)CCSSCCNC(=O)[C@H](Cc2c[nH]c3ccccc23)NC1=O)c1cccc(S(F)(F)(F)(F)F)c1 [X-B1-D3-W + A19] ([Mpa]P[Dap](X11)W-Cysteamide; disulfide 1-C)
fraction fluorescent probe displaced [1]: 0.1429

Structure (SMILES): O=C(/C=C/c1ccccc1)NC[C@@H]1NC(=O)CCSSCCNC(=O)[C@@H]2CCCN2C(=O)[C@H](Cc2ccccc2)NC1=O [X D3 F B1 Acid 91] ([Mpa][Dap](X1)FP-Cysteamide; disulfide 1-C)
fraction fluorescent probe displaced, Screen (Acid 91): -0.05 | fraction fluorescent probe displaced, Replicate (Acid 91, replicate): -0.06

Structure (SMILES): O=C1CCSSCCNC(=O)C2CC(NC(=O)c3ccc(Cl)cc3)CN2C(=O)C(Cc2c[nH]c3ccccc23)NC(=O)CCN1 (stereo not shown) [X B2 W D5 Acid 25]
fraction fluorescent probe displaced, Screen (Acid 25): 0.19 | fraction fluorescent probe displaced, Replicate (Acid 25, replicate): 0.22

Structure (SMILES): O=C(NC[C@@H]1NC(=O)[C@@H]2CCCN2C(=O)CCSSCCNC(=O)[C@H](Cc2ccccc2)NC1=O)c1c[nH]c(=O)cn1 [X-B1-D3-F + A9] ([Mpa]P[Dap](Pyrazinoyl(5-oxo-4H))F-Cysteamide; disulfide 1-C)
fraction fluorescent probe displaced [1]: -0.0026

Structure (SMILES): O=C(NC[C@@H]1NC(=O)[C@@H]2CCCN2C(=O)CCSSCCNC(=O)[C@H](Cc2c[nH]c3ccccc23)NC1=O)c1ccc(Br)o1 [X-B1-D3-W + A21] ([Mpa]P[Dap](X17)W-Cysteamide; disulfide 1-C)
fraction fluorescent probe displaced [1]: 0.2551

Other lines, results leading:

fraction fluorescent probe displaced, Screen (Acid 14): 0.08 | fraction fluorescent probe displaced, Replicate (Acid 14, replicate): 0.12
Structure (SMILES): O=C1CCSSCCNC(=O)[C@H](Cc2c[nH]c3ccccc23)NC(=O)[C@H]2CCCN(C2)C(=O)[C@H](CNC(=O)c2ccc(Cl)s2)N1 [X D3 B4 W Acid 14]

fraction fluorescent probe displaced, Screen (Acid 14): -0.0337 | fraction fluorescent probe displaced, Replicate (Acid 14, replicate): 0.07
Structure (SMILES): O=C1CCNC(=O)C2CC(NC(=O)c3ccc(Cl)s3)CN2C(=O)CCSSCCNC(=O)C(Cc2ccccc2)N1 (stereo not shown) [X D5 B2 F Acid 14]

fraction fluorescent probe displaced (crude reaction of macrocycle scaffold with Acid 25, (initial screen)): 0.0462 | fraction fluorescent probe displaced (crude reaction of macrocycle scaffold with Acid 25, replicate): 0.10
Structure (SMILES): O=C1NC2(CCN(C(=O)c3ccc(Cl)cc3)CC2)C(=O)N[C@@H](Cc2ccccc2)C(=O)NCCSSCCC(=O)N2CCC[C@H]1C2 [X B4 D6 F + Acid 25]

fraction fluorescent probe displaced, Screen (Acid 14): 0.17 | fraction fluorescent probe displaced, Replicate (Acid 14, replicate): 0.10
Structure (SMILES): O=C(NC[C@@H]1NC(=O)[C@@H]2CCCN2C(=O)CCSSCCNC(=O)[C@H](Cc2c[nH]c3ccccc23)NC1=O)c1ccc(Cl)s1 [X B1 D3 W Acid 14] ([Mpa]P[Dap](2Thenoyl(5-Cl))W-Cysteamide; disulfide 1-C)

fraction fluorescent probe displaced (crude reaction of macrocycle scaffold with Acid 14, (initial screen)): -0.00483 | fraction fluorescent probe displaced (crude reaction of macrocycle scaffold with Acid 14, replicate): 0.10
Structure (SMILES): O=C1CCSSCCNC(=O)[C@H](Cc2ccccc2)NC(=O)[C@H]2CCCN(C2)C(=O)C2(CCN(C(=O)c3ccc(Cl)s3)CC2)N1 [X D6 B4 F + Acid 14]

fraction fluorescent probe displaced, Screen (Acid 25): 0.09 | fraction fluorescent probe displaced, Replicate (Acid 25, replicate): 0.12
Structure (SMILES): O=C(NC[C@@H]1NC(=O)[C@H](Cc2ccccc2)NC(=O)[C@H]2CCCN(C2)C(=O)CCSSCCNC1=O)c1ccc(Cl)cc1 [X B4 F D3 Acid 25]

fraction fluorescent probe displaced, Screen (Acid 25): 0.0569 | fraction fluorescent probe displaced, Replicate (Acid 25, replicate): 0.07
Structure (SMILES): O=C1CCSSCCNC(=O)[C@H](Cc2ccccc2)NC(=O)[C@@H]2CCCN2C(=O)C2(CCN(C(=O)c3ccc(Cl)cc3)CC2)N1 [X D6 B1 F Acid 25] ([Mpa][Api](Benzoyl(4-Cl))PF-Cysteamide; disulfide 1-C)

fraction fluorescent probe displaced, Screen (Acid 14): 0.20 | fraction fluorescent probe displaced, Replicate (Acid 14, replicate): 0.12
Structure (SMILES): O=C1NC2(CCN(C(=O)c3ccc(Cl)s3)CC2)C(=O)NCCSSCCC(=O)N2CCC[C@H]2C(=O)N[C@H]1Cc1c[nH]c2ccccc12 [X B1 W D6 Acid 14] ([Mpa]PW[Api](2Thenoyl(5-Cl))-Cysteamide; disulfide 1-C)

fraction fluorescent probe displaced, Screen (Acid 91): 0.14 | fraction fluorescent probe displaced, Replicate (Acid 91, replicate): 0.07
Structure (SMILES): O=C1CCSSCCNC(=O)[C@H]2CCCN(C2)C(=O)[C@H](Cc2c[nH]c3ccccc23)NC(=O)C2(CCN(C(=O)/C=C/c3ccccc3)CC2)N1 [X D6 W B4 Acid 91]

fraction fluorescent probe displaced, Screen (Acid 14): 0.08 | fraction fluorescent probe displaced, Replicate (Acid 14, replicate): 0.20
Structure (SMILES): O=C1CCSSCCNC(=O)C2(CCN(C(=O)c3ccc(Cl)s3)CC2)NC(=O)[C@H]2CCCN(C2)C(=O)[C@H](Cc2ccccc2)N1 [X F B4 D6 Acid 14]

fraction fluorescent probe displaced, Screen (Acid 14): 0.28 | fraction fluorescent probe displaced, Replicate (Acid 14, replicate): 0.28
Structure (SMILES): O=C1CCSSCCNC(=O)[C@@H]2CCCN2C(=O)[C@H](CNC(=O)c2ccc(Cl)s2)NC(=O)[C@H](Cc2c[nH]c3ccccc23)N1 [X W D3 B1 Acid 14] ([Mpa]W[Dap](2Thenoyl(5-Cl))P-Cysteamide; disulfide 1-C)

fraction fluorescent probe displaced, Screen (Acid 25): 0.0569 | fraction fluorescent probe displaced, Replicate (Acid 25, replicate): 0.12
Structure (SMILES): O=C(NC1CC2C(=O)NCCSSCCC(=O)N3CCCC(C3)C(=O)NC(Cc3ccccc3)C(=O)N2C1)c1ccc(Cl)cc1 (stereo not shown) [X B4 F D5 Acid 25]

fraction fluorescent probe displaced, Screen (Acid 91): -0.05 | fraction fluorescent probe displaced, Replicate (Acid 91, replicate): -0.0333
Structure (SMILES): O=C1CCSSCCNC(=O)[C@H](Cc2ccccc2)NC(=O)c2cccc(c2)CNC(=O)C2(CCN(C(=O)/C=C/c3ccccc3)CC2)N1 [X D6 B5 F Acid 91]

fraction fluorescent probe displaced, Screen (Acid 14): 0.28 | fraction fluorescent probe displaced, Replicate (Acid 14, replicate): 0.22
Structure (SMILES): O=C1CCSSCCNC(=O)[C@@H]2CCCN2C(=O)[C@@H]2C[C@H](NC(=O)c3ccc(Cl)s3)CN2C(=O)[C@H](Cc2c[nH]c3ccccc23)N1 [X W D5 B1 Acid 14] ([Mpa]W[Pro(4S-NHCO(5-Cl-2-thienyl))]P-Cysteamide; disulfide 1-C)

fraction fluorescent probe displaced, Screen (Acid 14): 0.053 | fraction fluorescent probe displaced, Replicate (Acid 14, replicate): 0.10
Structure (SMILES): O=C1CCNC(=O)[C@H](Cc2ccccc2)NC(=O)[C@H](CNC(=O)c2ccc(Cl)s2)NC(=O)CCSSCCN1 [X D3 F B2 Acid 14]

fraction fluorescent probe displaced [1]: 0.03186
Structure (SMILES): O=C(NC[C@@H]1NC(=O)[C@@H]2CCCN2C(=O)CCSSCCNC(=O)[C@H](Cc2ccccc2)NC1=O)C1Cc2ccccc2C1 [X-B1-D3-F + A76] ([Mpa]P[Dap](Indane2carbonyl)F-Cysteamide; disulfide 1-C)

fraction fluorescent probe displaced, Screen (Acid 91): 0.22 | fraction fluorescent probe displaced, Replicate (Acid 91, replicate): 0.09
Structure (SMILES): O=C1CCSSCCNC(=O)C2(CCN(C(=O)/C=C/c3ccccc3)CC2)NC(=O)CCNC(=O)[C@H](Cc2c[nH]c3ccccc23)N1 [X W B2 D6 Acid 91]

fraction fluorescent probe displaced [1]: 0.1687
Structure (SMILES): O=C(NC[C@@H]1NC(=O)[C@@H]2CCCN2C(=O)CCSSCCNC(=O)[C@H](Cc2c[nH]c3ccccc23)NC1=O)c1ccc(Cl)s1 [X-B1-D3-W + A14] ([Mpa]P[Dap](2Thenoyl(5-Cl))W-Cysteamide; disulfide 1-C)

From PMC9250534, “Synthesis and direct assay of large macrocycle diversities by combinatorial late-stage modification at picomole scale” (Nature Communications, 2022)
